Test results from US11161839B2, “2-quinolone derived inhibitors of BCL6” (Cancer Research Technology Limited, priority 2017, dated 2021).
Like-named read-outs stand apart in the source and are kept apart here.

Key:
[1] = biological target: human BCL6 BTB domain (Trx-6xHis-BCL6) (Homo sapiens (Human), UniProt P41182); assay: HTRF in vitro assay (BCL6 BTB domain / BCOR-AF633 peptide); assay type: binding; conditions: for IC50: read-out: HTRF pIC50 (converted)
Experimental: The % inhibition at each concentration was calculated by normalising FRET ratio to the appropriate high (DMSO with all reagents) and low (DMSO without BCL6) controls.

[2] = biological target: BCL6-NCOR2(SMRT) corepressor protein-protein interaction (Homo sapiens (Human), UniProt P41182); assay: NanoBRET cell assay in transfected HEK293T cells; assay type: cell-based; conditions: further generated data (Table 2b); HEK293T cells, 6 hr; read-out: NanoBRET cell pIC50 (converted)
Text: A cellular nano-Bioluminescence Resonance Energy Transfer (nanoBRET) assay (Promega NanoBRET Nano-Glo Detection System, catalogue number N1662) was used to detect inhibition of the BCL6-NCOR2(SMRT) corepressor protein-protein interaction. DNA encoding full length BCL6 and NCOR2 were inserted into pFC32K.NanoLuc and pFC14K.HaloTag vectors (Promega) to produce C-terminal tagged fusion proteins BCL6-nanoLuc and NCOR2-HaloTag, respectively. […] Frozen transfected HEK293T cells were thawed, centrifuged and freezing medium was replaced by phenol red-free OptiMEM+4% FBS (Life Technology). […] Cells were incubated for 6 hr at 37° C./5% CO2 then NanoBRET furimazine substrate (Promega) was added to give a final concentration of 10 μM. After a short centrifugation the plates were read on an Envision (Perkin Elmer) plate reader equipped with a LUM/D600 Dual mirror, Lum 450/40 nm bandpass and D605 nm longpass filters, with a 0.2 sec reading to determine the BRET ratio. The % inhibition at each test concentration was calculated by normalising the BRET ratio to the appropriate high and low controls.

[3] = further generated data (Table 1b), 1 nM Trx-6xHis-BCL6, 0.5 nM anti-6xHis-Terbium cryptate
[4] = initially generated data (Table 1a), 10 nM Trx-6xHis-BCL6, 1 nM anti-6xHis-Terbium cryptate

Structure (SMILES): Cc1cc(C(C)Nc2cc(=O)n(C)c3ccc(Nc4ccnc(Cl)c4C#N)cc23)no1 (stereo not drawn) [Example 1m, 2-chloro-4-[[1-methyl-4-[1-(5-methylisoxazol-3-yl)ethylamino]-2-oxo-6-quinolyl]amino]pyridine-3-carbonitrile]
- HTRF pIC50 [1, 3]: 5.88
- HTRF pIC50 [1, 4]: 6.15
- IC50 [2]: 5.37 µM

Structure (SMILES): CC(Nc1cc(=O)n(C)c2ccc(Nc3nc(NCc4cccnc4)ncc3Cl)cc12)c1ncccn1 (stereo not drawn) [Example 17f, 6-((5-chloro-2-((pyridin-3-ylmethyl)amino)pyrimidin-4-yl)amino)-1-methyl-4((1-(pyrimidin-2-yl)ethyl)amino)quinolin-2(1H)-one:formic acid (1:1)]
- HTRF pIC50 [1, 3]: 6.32
- IC50 [2]: 3.24 µM

Structure (SMILES): CC(Nc1cc(=O)n(C)c2ccc(Nc3ccnc(C#N)c3Cl)cc12)c1ncccn1 (stereo not drawn) [Example 19h, 3-chloro-4-((1-methyl-2-oxo-4-((1-(pyrimidin-2-yl)ethyl)amino)-1,2-dihydroquinolin-6-yl)amino)picolinonitrile]
- HTRF pIC50 [1, 3]: 6.17
- IC50 [2]: 15.1 µM

Structure (SMILES): CC(Nc1cc(=O)n(C)c2ccc(Nc3cc(C(=O)N4CC(C(F)(F)F)C4)nc(Cl)c3C#N)cc12)c1ncc(C2CC2)cn1 (stereo not drawn) [Example 8f, 2-chloro-4-((4-((1-(5-cyclopropylpyrimidin-2-yl)ethyl)amino)-1-methyl-2-oxo-1,2-dihydroquinolin-6-yl)amino)-6-(3-(trifluoromethyl)azetidine-1-carbonyl)nicotinonitrile]
- HTRF pIC50 [1, 3]: 6.99
- IC50 [2]: 5.25 µM

Structure (SMILES): CCC(C)(COC)Nc1cc(=O)n(C)c2ccc(Nc3cc(C(=O)NC)nc(Cl)c3C#N)cc12 (stereo not drawn) [Example 19f, 6-chloro-5-cyano-4-((4-((1-methoxy-2-methylbutan-2-yl)amino)-1-methyl-2-oxo-1,2-dihydroquinolin-6-yl)amino)-N-methylpicolinamide]
- HTRF pIC50 [1, 3]: 6.40
- IC50 [2]: 2.95 µM

Structure (SMILES): C[C@@H](Nc1cc(=O)n(C)c2ccc(Nc3ccnc(Cl)c3C#N)cc12)C1CC1 [Example 10n, (R)-2-chloro-4-((4-((1-cyclopropylethyl)amino)-1-methyl-2-oxo-1,2-dihydroquinolin-6-yl)amino)nicotinonitrile]
- HTRF pIC50 [1, 3]: 6.55
- IC50 [2]: 1.29 µM

Structure (SMILES): CNC(=O)c1cc(Nc2ccc3c(c2)c(NC(C)C2CC2)cc(=O)n3C)c(C#N)c(Cl)n1 (stereo not drawn) [Example 7b, 6-chloro-5-cyano-4-((4-((1-cyclopropylethyl)amino)-1-methyl-2-oxo-1,2-dihydroquinolin-6-yl)amino)-N-methylpicolinamide]
- IC50 [1, 3]: 288 nM
- IC50 [2]: 1.12 µM

Structure (SMILES): CNC(=O)c1cc(Nc2ccc3c(c2)c(NC(C)(C)c2ncccn2)cc(=O)n3C)c(C#N)c(Cl)n1 [Example 1u, 6-chloro-5-cyano-N-methyl-4-[[1-methyl-4-[(1-methyl-1-pyrimidin-2-yl-ethyl)amino]-2-oxo-6-quinolyl]amino]pyridine-2-carboxamide]
- HTRF pIC50 [1, 3]: 7.51
- HTRF pIC50 [1, 4]: 7.44
- IC50 [2]: 0.525 µM

Structure (SMILES): CC(Nc1cc(=O)n(C)c2ccc(Nc3nc(N4CCC(C(=O)N(C)C)CC4)ncc3Cl)cc12)c1ncccn1 (stereo not drawn) [Example 17c, 1-(5-chloro-4-((-methyl-2-oxo-4-((1-(pyrimidin-2yl)ethyl)amino)-1,2-dihydroquinolin-6-yl)amino)pyrimidin-2-yl)-N,N-dimethylpiperidine-4-carboxamide]
- IC50 [1, 3]: 339 nM
- IC50 [2]: 3.72 µM

Structure (SMILES): C[C@@H]1CN(c2cnc(C(C)(C)Nc3cc(=O)n(C)c4ccc(Nc5ccnc(Cl)c5C#N)cc34)nc2)C[C@H](C)O1 [Example 7a, 2-Chloro-4-((4-((2-(5-((2R,6S)-2,6-dimethylmorpholino)pyrimidin-2-yl)propan-2-yl)amino)-1-methyl-2-oxo-1,2-dihydroquinolin-6-yl)amino)nicotinonitrile]
- HTRF pIC50 [1, 3]: 7.91
- IC50 [2]: 0.347 µM

Structure (SMILES): Cc1nc(-n2ccc(C(F)(F)F)n2)nc(Nc2ccc3c(c2)c(NC(C)(C)c2ncccn2)cc(=O)n3C)c1Cl [Example 14a, 6-((5-chloro-6-methyl-2-(3-(trifluoromethyl)-1H-pyrazol-1-yl)pyrimidin-4-yl)amino)-1-methyl-4-((2-(pyrimidin-2-yl)propan-2-yl)amino)quinolin-2(1H)-one]
- HTRF pIC50 [1, 3]: 6.66
- IC50 [2]: 3.89 µM

Structure (SMILES): CC(Nc1cc(=O)n(C)c2ccc(Nc3cc(N4C[C@@H](C)O[C@@H](C)C4)ncc3Cl)cc12)c1ncccn1 (stereo partly drawn) [Example 15e, 6-((5-chloro-2-((2S,6R)-2,6-dimethylmorpholino)pyridin-4-yl)amino)-1-methyl-4-((1-(pyrimidin-2-yl)ethyl)amino)quinolin-2(1H)-one]
- HTRF pIC50 [1, 3]: 6.28
- IC50 [2]: 4.27 µM

Structure (SMILES): C[C@@H]1CN(c2ncc(Cl)c(Nc3ccc4c(c3)c(N[C@H](C)C3CC3)cc(=O)n4C)n2)C[C@H](C)O1 [Example 17d, 6-((5-chloro-2-((2S,6R)-2,6-dimethylmorpholino)pyrimidin-4-yl)amino)-4-(((R)-1-cyclopropylethyl)amino)-1-methylquinolin-2(1H)-one:formic acid (1:1)]
- HTRF pIC50 [1, 3]: 6.19

Structure (SMILES): CC(Nc1cc(=O)n(C)c2ccc(Nc3cc(C(=O)O)nc(Cl)c3C#N)cc12)C1CC1 (stereo not drawn) [Example 2a, 6-Chloro-5-cyano-4-[[4-(1-cyclopropylethylamino)-1-methyl-2-oxo-6-quinolyl]amino]pyridine-2-carboxylic acid]
- HTRF pIC50 [1, 3]: 6.85
- HTRF pIC50 [1, 4]: 6.78

Structure (SMILES): Cn1c(=O)nc(NC(C)(C)c2ncccn2)c2cc(Nc3nc(N4CCC(F)(F)C(CO)C4)ncc3Cl)ccc21 (stereo not drawn) [Example 12i, 6-((5-chloro-2-(4,4-difluoro-3-(hydroxymethyl)piperidin-1-yl)pyrimidin-4-yl)amino)-1-methyl-4-((2-(pyrimidin-2-yl)propan-2-yl)amino)quinazolin-2(1H)-one]
- HTRF pIC50 [1, 3]: 7.32

Structure (SMILES): CCNC(=O)C(C)Nc1cc(=O)n(C)c2ccc(Nc3ccnc(Cl)c3C#N)cc12 (racemic) [Example 3k, rac-2-((6-((2-Chloro-3-cyanopyridin-4-yl)amino)-1-methyl-2-oxo-1,2-dihydroquinolin-4-yl)amino)-N-ethylpropanamide]
- IC50 [1, 4]: 676 nM

Structure (SMILES): CC(Nc1cc(=O)n(C)c2ncc(Nc3ccnc(Cl)c3Cl)cc12)c1ncccn1 (stereo not drawn) [Example 6e, 6-((2,3-dichloropyridin-4-yl)amino)-1-methyl-4-((1-(pyrimidin-2-yl)ethyl)amino)-1,8-naphthyridin-2(1H)-one]
- HTRF pIC50 [1, 3]: 6.28

Structure (SMILES): Cc1ccnc(C(C)Nc2cc(=O)n(C)c3ccc(Nc4ccnc(Cl)c4C#N)cc23)n1 (stereo not drawn) [Example 1i, 2-chloro-4-[[1-methyl-4-[1-(4-methylpyrimidin-2-yl)ethylamino]-2-oxo-6-quinolyl]amino]pyridine-3-carbonitrile]
- HTRF pIC50 [1, 3]: 6.26
- HTRF pIC50 [1, 4]: 6.31

Structure (SMILES): C[C@H](Nc1cc(=O)n(C)c2ccc(Nc3cc(C(=O)O)nc(Cl)c3C#N)cc12)C1CC1 [Example 9d, (S)-6-chloro-5-cyano-4-((4-((1-cyclopropylethyl)amino)-1-methyl-2-oxo-1,2-dihydroquinolin-6-yl)amino)picolinic acid]
- HTRF pIC50 [1, 3]: 6.13

Structure (SMILES): CC(Nc1cc(=O)n(C)c2ccc(Nc3ncnc(Cl)c3C#N)cc12)c1ncccn1 (stereo not drawn) [Example 10t, 4-chloro-6-((1-methyl-2-oxo-4-((1-(pyrimidin-2-yl)ethyl)amino)-1,2-dihydroquinolin-6-yl)amino)pyrimidine-5-carbonitrile]
- HTRF pIC50 [1, 3]: 6.22
